Measurements from US20220119354A1, “DIAMINO-SUBSTITUTED PYRIDINES AND PYRIMIDINES AS HERBICIDES” (FMC Corporation, priority 2019, published 2022).

Columns and labels:
Format in all cases: in vivo
[1] = test system: barnyardgrass (Echinochloa crus-galli); assay: Test A preemergence, barnyardgrass; details: 0 to 100 scale
Outline: (§1)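 0–100 visual control rating, ~10 d post-treatment, greenhouse. Pre = directed soil spray on seeded loam/sand; post = spray at 1–2 leaf stage. Surfactant-containing solvent formulation.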

kochia (Kochia scoparia) [2] = assay: Test A preemergence, kochia; details: 0 to 100 scale
Outline: as §1

[3] = test system: ragweed (common ragweed, Ambrosia elatior); assay: Test A preemergence, ragweed; details: 0 to 100 scale
Outline: as §1

[4] = test system: ryegrass, Italian (Lolium multiflorum); assay: Test A preemergence, Italian ryegrass; details: 0 to 100 scale
Outline: as §1

[5] = test system: foxtail, giant (Setaria faberii); assay: Test A preemergence, giant foxtail; details: 0 to 100 scale
Outline: as §1

[6] = test system: pigweed (Amaranthus retroflexus); assay: Test A preemergence, pigweed; details: 0 to 100 scale
Outline: as §1

[7] = test system: barnyardgrass (Echinochloa crus-galli); assay: Test A postemergence, barnyardgrass; details: 0 to 100 scale
Outline: as §1

kochia (Kochia scoparia) [8] = assay: Test A postemergence, kochia; details: 0 to 100 scale
Outline: as §1

[9] = test system: ragweed (common ragweed, Ambrosia elatior); assay: Test A postemergence, ragweed; details: 0 to 100 scale
Outline: as §1

[10] = test system: ryegrass, Italian (Lolium multiflorum); assay: Test A postemergence, Italian ryegrass; details: 0 to 100 scale
Outline: as §1

[11] = test system: foxtail, giant (Setaria faberii); assay: Test A postemergence, giant foxtail; details: 0 to 100 scale
Outline: as §1

[12] = test system: pigweed (Amaranthus retroflexus); assay: Test A postemergence, pigweed; details: 0 to 100 scale
Outline: as §1

[13] = test system: wheat (Triticum aestivum); assay: Test A postemergence, wheat; details: 0 to 100 scale
Outline: as §1

corn (Zea mays) = assay: Test A postemergence, corn; details: 0 to 100 scale
Outline: as §1

[14] = test system: blackgrass (Alopecurus myosuroides); assay: Test A postemergence, blackgrass; details: 0 to 100 scale
Outline: as §1

[15] = test system: galium (catchweed bedstraw, Galium aparine); assay: Test A postemergence, galium; details: 0 to 100 scale
Outline: as §1

rice (Oryza sativa) = assay: Test B flooded paddy test, rice; details: Flood, 250 g ai/ha, applied to paddy water, 2-leaf stage, visual evaluation after 13 to 15 d
Outline: (§2)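 2-leaf seedlings; pots flooded 3 cm above soil; compound added straight to paddy water; depth maintained. Greenhouse 13–15 d. Visual rating vs controls, 0–100 scale (0 = no effect, 100 = complete control).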

[16] = test system: sedge, umbrella (small-flower umbrella sedge, Cyperus difformis); assay: Test B flooded paddy test, umbrella sedge; details: Flood, 250 g ai/ha, applied to paddy water, 2-leaf stage, visual evaluation after 13 to 15 d
Outline: as §2

[17] = test system: ducksalad (Heteranthera limosa); assay: Test B flooded paddy test, ducksalad; details: Flood, 250 g ai/ha, applied to paddy water, 2-leaf stage, visual evaluation after 13 to 15 d
Outline: as §2

[18] = test system: barnyardgrass (Echinochloa crus-galli); assay: Test B flooded paddy test, barnyardgrass; details: Flood, 250 g ai/ha, applied to paddy water, 2-leaf stage, visual evaluation after 13 to 15 d
Outline: as §2

C[C@@H](Nc1ncc(C(F)(F)F)c(N)n1)c1cc2ccc(C(F)(F)F)cc2o1 [Compound 15]
Plant response rating, Barnyardgrass ([1]; 125 g ai/ha): 20
Plant response rating, Barnyardgrass ([1]; 500 g ai/ha): 70
Plant response rating, Kochia (kochia (Kochia scoparia) [2]; 125 g ai/ha): 40
Plant response rating, Kochia (kochia (Kochia scoparia) [2]; 500 g ai/ha): 50
Plant response rating, Ragweed ([3]; 125 g ai/ha): 30
Plant response rating, Ragweed ([3]; 500 g ai/ha): 90
Plant response rating, Ryegrass, Italian ([4]; 125 g ai/ha): 0
Plant response rating, Ryegrass, Italian ([4]; 500 g ai/ha): 70
Plant response rating, Foxtail, Giant ([5]; 125 g ai/ha): 20
Plant response rating, Foxtail, Giant ([5]; 500 g ai/ha): 90
Plant response rating, Pigweed ([6]; 125 g ai/ha): 80
Plant response rating, Pigweed ([6]; 500 g ai/ha): 100
Plant response rating, Barnyardgrass ([7]; 125 g ai/ha): 30
Plant response rating, Barnyardgrass ([7]; 500 g ai/ha): 30
Plant response rating, Kochia (kochia (Kochia scoparia) [8]; 125 g ai/ha): 40
Plant response rating, Kochia (kochia (Kochia scoparia) [8]; 500 g ai/ha): 80
Plant response rating, Ragweed ([9]; 125 g ai/ha): 20
Plant response rating, Ragweed ([9]; 500 g ai/ha): 40
Plant response rating, Ryegrass, Italian ([10]; 125 g ai/ha): 0
Plant response rating, Ryegrass, Italian ([10]; 500 g ai/ha): 30
Plant response rating, Foxtail, Giant ([11]; 125 g ai/ha): 30
Plant response rating, Foxtail, Giant ([11]; 500 g ai/ha): 80
Plant response rating, Pigweed ([12]; 125 g ai/ha): 90
Plant response rating, Pigweed ([12]; 500 g ai/ha): 90
Plant response rating, Wheat ([13]; 125 g ai/ha): 0
Plant response rating, Wheat ([13]; 500 g ai/ha): 0
Plant response rating, Corn (corn (Zea mays); 125 g ai/ha): 0
Plant response rating, Corn (corn (Zea mays); 500 g ai/ha): 20
Plant response rating, Blackgrass ([14]; 125 g ai/ha): 0
Plant response rating, Blackgrass ([14]; 500 g ai/ha): 30
Plant response rating, Galium ([15]; 125 g ai/ha): 60
Plant response rating, Galium ([15]; 500 g ai/ha): 80
Plant response rating, Rice (0 to 100 scale, 0 is no effect, 100 is complete control) (rice (Oryza sativa)): 0
Plant response rating, Sedge, Umbrella (0 to 100 scale, 0 is no effect, 100 is complete control) [16]: 0
Plant response rating, Ducksalad (0 to 100 scale, 0 is no effect, 100 is complete control) [17]: 0
Plant response rating, Barnyardgrass (0 to 100 scale, 0 is no effect, 100 is complete control) [18]: 0

CCc1ccc2oc([C@@H](C)Nc3ncc(C(F)(F)F)c(N)n3)cc2c1 [Compound 17]
Plant response rating, Barnyardgrass ([1]; 125 g ai/ha): 0
Plant response rating, Barnyardgrass ([1]; 500 g ai/ha): 0
Plant response rating, Kochia (kochia (Kochia scoparia) [2]; 125 g ai/ha): 0
Plant response rating, Kochia (kochia (Kochia scoparia) [2]; 500 g ai/ha): 0
Plant response rating, Ragweed ([3]; 125 g ai/ha): 0
Plant response rating, Ragweed ([3]; 500 g ai/ha): 50
Plant response rating, Ryegrass, Italian ([4]; 125 g ai/ha): 0
Plant response rating, Ryegrass, Italian ([4]; 500 g ai/ha): 20
Plant response rating, Foxtail, Giant ([5]; 125 g ai/ha): 0
Plant response rating, Foxtail, Giant ([5]; 500 g ai/ha): 20
Plant response rating, Pigweed ([6]; 125 g ai/ha): 0
Plant response rating, Pigweed ([6]; 500 g ai/ha): 0
Plant response rating, Barnyardgrass ([7]; 125 g ai/ha): 0
Plant response rating, Barnyardgrass ([7]; 500 g ai/ha): 0
Plant response rating, Kochia (kochia (Kochia scoparia) [8]; 125 g ai/ha): 0
Plant response rating, Kochia (kochia (Kochia scoparia) [8]; 500 g ai/ha): 0
Plant response rating, Ragweed ([9]; 125 g ai/ha): 0
Plant response rating, Ragweed ([9]; 500 g ai/ha): 20
Plant response rating, Ryegrass, Italian ([10]; 125 g ai/ha): 0
Plant response rating, Ryegrass, Italian ([10]; 500 g ai/ha): 0
Plant response rating, Foxtail, Giant ([11]; 125 g ai/ha): 20
Plant response rating, Foxtail, Giant ([11]; 500 g ai/ha): 20
Plant response rating, Pigweed ([12]; 125 g ai/ha): 0
Plant response rating, Pigweed ([12]; 500 g ai/ha): 20
Plant response rating, Wheat ([13]; 125 g ai/ha): 0
Plant response rating, Wheat ([13]; 500 g ai/ha): 0
Plant response rating, Corn (corn (Zea mays); 125 g ai/ha): 0
Plant response rating, Corn (corn (Zea mays); 500 g ai/ha): 0
Plant response rating, Blackgrass ([14]; 125 g ai/ha): 0
Plant response rating, Blackgrass ([14]; 500 g ai/ha): 0
Plant response rating, Galium ([15]; 125 g ai/ha): 0
Plant response rating, Galium ([15]; 500 g ai/ha): 0
Plant response rating, Rice (0 to 100 scale, 0 is no effect, 100 is complete control) (rice (Oryza sativa)): 0
Plant response rating, Sedge, Umbrella (0 to 100 scale, 0 is no effect, 100 is complete control) [16]: 0
Plant response rating, Ducksalad (0 to 100 scale, 0 is no effect, 100 is complete control) [17]: 0
Plant response rating, Barnyardgrass (0 to 100 scale, 0 is no effect, 100 is complete control) [18]: 0

CC[C@@H](Nc1ncc(C(F)(F)F)c(N)n1)c1cc2ccccc2o1 [Compound 21]
Plant response rating, Barnyardgrass ([1]; 1000 g ai/ha): 100
Plant response rating, Kochia (kochia (Kochia scoparia) [2]; 1000 g ai/ha): 80
Plant response rating, Ragweed ([3]; 1000 g ai/ha): 100
Plant response rating, Ryegrass, Italian ([4]; 1000 g ai/ha): 80
Plant response rating, Foxtail, Giant ([5]; 1000 g ai/ha): 100
Plant response rating, Pigweed ([6]; 1000 g ai/ha): 100
Plant response rating, Barnyardgrass ([7]; 1000 g ai/ha, 0 no effect, 100 complete control): 80
Plant response rating, Kochia (kochia (Kochia scoparia) [8]; 1000 g ai/ha): 90
Plant response rating, Ragweed ([9]; 1000 g ai/ha): 80
Plant response rating, Ryegrass, Italian ([10]; 1000 g ai/ha): 50
Plant response rating, Foxtail, Giant ([11]; 1000 g ai/ha): 70
Plant response rating, Pigweed ([12]; 1000 g ai/ha): 100
Plant response rating, Wheat ([13]; 1000 g ai/ha): 0
Plant response rating, Corn (corn (Zea mays); 1000 g ai/ha): 100
Plant response rating, Blackgrass ([14]; 1000 g ai/ha): 80
Plant response rating, Galium ([15]; 1000 g ai/ha): 80
Plant response rating, Rice (0 to 100 scale, 0 is no effect, 100 is complete control) (rice (Oryza sativa)): 0
Plant response rating, Sedge, Umbrella (0 to 100 scale, 0 is no effect, 100 is complete control) [16]: 65
Plant response rating, Ducksalad (0 to 100 scale, 0 is no effect, 100 is complete control) [17]: 60
Plant response rating, Barnyardgrass (0 to 100 scale, 0 is no effect, 100 is complete control) [18]: 0

C[C@@H](Nc1ncc(C(F)(F)F)c(N)n1)c1cc2ccccc2o1 [Compound 22, N2-[(1R)-1-(2-benzofuranyl)ethyl]-5-(trifluoromethyl)-2,4-pyrimidinediamine]
Plant response rating, Barnyardgrass ([1]; 1000 g ai/ha): 100
Plant response rating, Kochia (kochia (Kochia scoparia) [2]; 1000 g ai/ha): 100
Plant response rating, Ragweed ([3]; 1000 g ai/ha): 100
Plant response rating, Ryegrass, Italian ([4]; 1000 g ai/ha): 100
Plant response rating, Foxtail, Giant ([5]; 1000 g ai/ha): 100
Plant response rating, Pigweed ([6]; 1000 g ai/ha): 100
pest or weed control at 1000 g/ha ([7]; Echinochloa crus-galli, post-emergence, 240 h, 1000 g ai/ha, 0 no effect, 100 complete control, read-out: Plant response rating, Barnyardgrass): 100%
pest or weed control at 1000 g/ha (kochia (Kochia scoparia) [8]; Bassia scoparia, post-emergence, 240 h, 1000 g ai/ha, read-out: Plant response rating, Kochia): 80%
pest or weed control at 1000 g/ha ([9]; Ambrosia artemisiifolia, post-emergence, 240 h, 1000 g ai/ha, read-out: Plant response rating, Ragweed): 80%
pest or weed control at 1000 g/ha ([10]; Lolium multiflorum, post-emergence, 240 h, 1000 g ai/ha, read-out: Plant response rating, Ryegrass, Italian): 100%
pest or weed control at 1000 g/ha ([11]; Setaria faberi, post-emergence, 240 h, 1000 g ai/ha, read-out: Plant response rating, Foxtail, Giant): 90%
pest or weed control at 1000 g/ha ([12]; Amaranthus retroflexus, post-emergence, 240 h, 1000 g ai/ha, read-out: Plant response rating, Pigweed): 100%
plant injury at 1000 g/ha ([13]; Triticum aestivum, post-emergence, 240 h, 1000 g ai/ha, read-out: Plant response rating, Wheat): 40%
Corn plant response rating (crop injury, 0 = no effect, 100 = complete kill) at 1000 g/ha (corn (Zea mays); Zea mays, post-emergence, 240 h, 1000 g ai/ha): 100%
pest or weed control at 1000 g/ha ([14]; Alopecurus myosuroides, post-emergence, 240 h, 1000 g ai/ha, read-out: Plant response rating, Blackgrass): 90%
pest or weed control at 1000 g/ha ([15]; Galium, post-emergence, 240 h, 1000 g ai/ha, read-out: Plant response rating, Galium): 90%
plant injury at 250 g/ha (rice (Oryza sativa); Oryza sativa, 360 h, read-out: Plant response rating, Rice (0 to 100 scale, 0 is no effect, 100 is complete control)): 0%
pest or weed control at 250 g/ha ([16]; Cyperus difformis, 360 h, read-out: Plant response rating, Sedge, Umbrella (0 to 100 scale, 0 is no effect, 100 is complete control)): 95%
pest or weed control at 250 g/ha ([17]; Heteranthera limosa, 360 h, read-out: Plant response rating, Ducksalad (0 to 100 scale, 0 is no effect, 100 is complete control)): 100%
pest or weed control at 250 g/ha ([18]; Echinochloa crus-galli, 360 h, read-out: Plant response rating, Barnyardgrass (0 to 100 scale, 0 is no effect, 100 is complete control)): 40%
